# In patent US8802597B2, “Herbicidal pyrimidines” (E I du Pont de Nemours and Company, priority 2003, dated 2014):
# Columns and labels:
# Assay type in all cases: in vivo
# [1] = test system: Surinam grass (Brachiaria decumbens); assay: Test B pre/postemergence
# Excerpt: (§1) Seeds selected from barnyardgrass (Echinochloa crus-galli), Surinam grass (Brachiaria decumbens), cocklebur (Xanthium strumarium), corn (Zea mays), crabgrass (Digitaria sanguinalis), giant foxtail (Setaria faberii), lambsquarters (Chenopodium album), morningglory (Ipomoea coccinea), pigweed (Amaranthus retroflexus), velvetleaf (Abutilon theophrasti), and wheat (Triticum aestivum) were planted and treated preemergence with test chemicals formulated in a non-phytotoxic solvent mixture which included a surfactant.
# (§2) At the same time, plants selected from these crop and weed species and also blackgrass (Alopecurus myosuroides) and wild oat (Avena fatua) were treated with postemergence applications of test chemicals formulated in the same manner. Plants ranged in height from 2 to 18 cm (1- to 4-leaf stage) for postemergence treatments. Plant species in the flooded paddy test consisted of rice (Oryza sativa), umbrella sedge (Cyperus difformis), duck salad (Heteranthera limosa) and barnyardgrass (Echinochloa crus-galli) grown to the 2-leaf stage for testing. Treated plants and controls were maintained in a greenhouse for 13 to 15 days, after which time all species were compared to controls and visually evaluated. Plant response ratings, summarized in Table B, are based on a scale of 0 to 100 where 0 is no effect and 100 is complete control. A dash (-) response means no test result.
# [2] = test system: barnyardgrass (Echinochloa crus-galli); assay: Test B pre/postemergence
# Excerpt: as §1, §2
# [3] = test system: cocklebur (Xanthium strumarium); assay: Test B pre/postemergence
# Excerpt: as §1, §2
# corn (Zea mays) = assay: Test B pre/postemergence
# Excerpt: as §1, §2
# [4] = test system: crabgrass (Digitaria sanguinalis); assay: Test B pre/postemergence
# Excerpt: as §1, §2
# [5] = test system: giant foxtail (Setaria faberii); assay: Test B pre/postemergence
# Excerpt: as §1, §2
# [6] = test system: lambsquarters (Chenopodium album); assay: Test B pre/postemergence
# Excerpt: as §1, §2
# [7] = test system: morningglory (Ipomoea coccinea); assay: Test B pre/postemergence
# Excerpt: as §1, §2
# [8] = test system: pigweed (Amaranthus retroflexus); assay: Test B pre/postemergence
# Excerpt: as §1, §2
# [9] = test system: velvetleaf (Abutilon theophrasti); assay: Test B pre/postemergence
# Excerpt: as §1, §2
# [10] = test system: wheat (Triticum aestivum); assay: Test B pre/postemergence
# Excerpt: as §1, §2
# [11] = test system: blackgrass (Alopecurus myosuroides); assay: Test B postemergence; conditions: for Blackgrass plant response rating: 125 g ai/ha, scale 0 to 100 (0 no effect, 100 complete control); for Plant response rating, Blackgrass: 500 g ai/ha, scale 0 to 100
# Method in brief: (§3)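 Greenhouse whole-plant test; surfactant-containing non-phytotoxic solvent formulation; pre- and postemergence applications made simultaneously; post plants 2–18 cm, 1- to 4-leaf; visual scoring at 13–15 days on 0–100 scale relative to controls.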
# wild oat (Avena fatua) = assay: Test B postemergence; conditions: for Oat, Wild plant response rating: 125 g ai/ha, scale 0 to 100 (0 no effect, 100 complete control); for Plant response rating, Oat, Wild: 500 g ai/ha, scale 0 to 100
# Method in brief: as §3
# [12] = test system: barnyardgrass (Echinochloa crus-galli); assay: Test B flooded paddy test; conditions: Flood, 1000 g ai/ha; scale 0 (no effect) to 100 (complete control)
# Procedure: as §2
# [13] = test system: duck salad (Heteranthera limosa); assay: Test B flooded paddy test; conditions: Flood, 1000 g ai/ha; scale 0 to 100
# Procedure: as §2
# rice (Oryza sativa) = assay: Test B flooded paddy test; conditions: Flood, 1000 g ai/ha; scale 0 to 100
# Procedure: as §2
# [14] = test system: umbrella sedge (Cyperus difformis); assay: Test B flooded paddy test; conditions: Flood, 1000 g ai/ha; scale 0 to 100
# Procedure: as §2
# [15] = Postemergence, 125 g ai/ha, scale 0 to 100 (0 no effect, 100 complete control)
# [16] = Postemergence, 500 g ai/ha, scale 0 to 100
# [17] = Preemergence, 125 g ai/ha, scale 0 to 100 (0 no effect, 100 complete control)
# [18] = Preemergence, 500 g ai/ha, scale 0 to 100 (0 no effect, 100 complete control)
compound,measurement,setting,value
CCOC(=O)C(C)c1nc(C2CC2)nc(N)c1Br (stereo not drawn) [Compound 32],Surinam Grass plant response rating,[1]; [15],0
same,"Plant response rating, Surinam Grass",[1]; [16],10
same,"Plant response rating, Surinam Grass",[1]; [17],0
same,Surinam Grass plant response rating,[1]; [18],0
same,Barnyardgrass plant response rating,[2]; [15],20
same,"Plant response rating, Barnyardgrass",[2]; [16],70
same,"Plant response rating, Barnyardgrass",[2]; [17],0
same,Barnyardgrass plant response rating,[2]; [18],10
same,Cocklebur plant response rating,[3]; [15],40
same,"Plant response rating, Cocklebur",[3]; [16],90
same,"Plant response rating, Cocklebur",[3]; [17],80
same,Cocklebur plant response rating,[3]; [18],90
same,Corn plant response rating,corn (Zea mays); [15],0
same,"Plant response rating, Corn",corn (Zea mays); [16],10
same,"Plant response rating, Corn",corn (Zea mays); [17],0
same,Corn plant response rating,corn (Zea mays); [18],0
same,Crabgrass plant response rating,[4]; [15],10
same,"Plant response rating, Crabgrass",[4]; [16],20
same,"Plant response rating, Crabgrass",[4]; [17],0
same,Crabgrass plant response rating,[4]; [18],40
same,"Foxtail, Giant plant response rating",[5]; [15],10
same,"Plant response rating, Foxtail, Giant",[5]; [16],20
same,"Plant response rating, Foxtail, Giant",[5]; [17],0
same,"Foxtail, Giant plant response rating",[5]; [18],0
same,Lambsquarters plant response rating,[6]; [15],70
same,"Plant response rating, Lambsquarters",[6]; [16],80
same,"Plant response rating, Lambsquarters",[6]; [17],40
same,Lambsquarters plant response rating,[6]; [18],90
same,Morningglory plant response rating,[7]; [15],40
same,"Plant response rating, Morningglory",[7]; [16],90
same,"Plant response rating, Morningglory",[7]; [17],40
same,Morningglory plant response rating,[7]; [18],80
same,Pigweed plant response rating,[8]; [15],80
same,"Plant response rating, Pigweed",[8]; [16],80
same,"Plant response rating, Pigweed",[8]; [17],40
same,Pigweed plant response rating,[8]; [18],90
same,Velvetleaf plant response rating,[9]; [15],10
same,"Plant response rating, Velvetleaf",[9]; [16],50
same,"Plant response rating, Velvetleaf",[9]; [17],50
same,Velvetleaf plant response rating,[9]; [18],80
same,Wheat plant response rating,[10]; [15],20
same,"Plant response rating, Wheat",[10]; [16],30
same,"Plant response rating, Wheat",[10]; [17],0
same,Wheat plant response rating,[10]; [18],10
same,Blackgrass plant response rating,[11],30
same,"Plant response rating, Blackgrass",[11],40
same,"Oat, Wild plant response rating",wild oat (Avena fatua),20
same,"Plant response rating, Oat, Wild",wild oat (Avena fatua),30
same,"Plant response rating, Barnyardgrass",[12],0
same,"Plant response rating, Ducksalad",[13],0
same,"Plant response rating, Rice",rice (Oryza sativa),0
same,"Plant response rating, Sedge, Umbrella",[14],0
CCOC(=O)c1nc(C2CC2)nc(NCCN(C)C)c1Br [Compound 38],Surinam Grass plant response rating,[1]; [15],0
same,"Plant response rating, Surinam Grass",[1]; [16],20
same,"Plant response rating, Surinam Grass",[1]; [17],0
same,Surinam Grass plant response rating,[1]; [18],0
same,Barnyardgrass plant response rating,[2]; [15],0
same,"Plant response rating, Barnyardgrass",[2]; [16],0
same,"Plant response rating, Barnyardgrass",[2]; [17],0
same,Barnyardgrass plant response rating,[2]; [18],0
same,Cocklebur plant response rating,[3]; [15],0
same,"Plant response rating, Cocklebur",[3]; [16],0
same,"Plant response rating, Cocklebur",[3]; [17],0
same,Cocklebur plant response rating,[3]; [18],0
same,Corn plant response rating,corn (Zea mays); [15],0
same,"Plant response rating, Corn",corn (Zea mays); [16],0
same,"Plant response rating, Corn",corn (Zea mays); [17],0
same,Corn plant response rating,corn (Zea mays); [18],10
same,Crabgrass plant response rating,[4]; [15],0
same,"Plant response rating, Crabgrass",[4]; [16],20
same,"Plant response rating, Crabgrass",[4]; [17],0
same,Crabgrass plant response rating,[4]; [18],0
same,"Foxtail, Giant plant response rating",[5]; [15],0
same,"Plant response rating, Foxtail, Giant",[5]; [16],0
same,"Plant response rating, Foxtail, Giant",[5]; [17],0
same,"Foxtail, Giant plant response rating",[5]; [18],0
same,Lambsquarters plant response rating,[6]; [15],20
same,"Plant response rating, Lambsquarters",[6]; [16],60
same,"Plant response rating, Lambsquarters",[6]; [17],20
same,Lambsquarters plant response rating,[6]; [18],90
same,Morningglory plant response rating,[7]; [15],10
same,"Plant response rating, Morningglory",[7]; [16],40
same,"Plant response rating, Morningglory",[7]; [17],0
same,Morningglory plant response rating,[7]; [18],50
same,Pigweed plant response rating,[8]; [15],30
same,"Plant response rating, Pigweed",[8]; [16],30
same,"Plant response rating, Pigweed",[8]; [17],10
same,Pigweed plant response rating,[8]; [18],70
same,Velvetleaf plant response rating,[9]; [15],0
same,"Plant response rating, Velvetleaf",[9]; [16],50
same,"Plant response rating, Velvetleaf",[9]; [17],0
same,Velvetleaf plant response rating,[9]; [18],0
same,Wheat plant response rating,[10]; [15],0
same,"Plant response rating, Wheat",[10]; [16],0
same,"Plant response rating, Wheat",[10]; [17],0
same,"Plant response rating, Wheat",[10]; [18],0
same,Blackgrass plant response rating,[11],0
same,"Plant response rating, Blackgrass",[11],0
same,"Oat, Wild plant response rating",wild oat (Avena fatua),0
same,"Plant response rating, Oat, Wild",wild oat (Avena fatua),0
same,"Plant response rating, Barnyardgrass",[12],0
same,"Plant response rating, Ducksalad",[13],0
same,"Plant response rating, Rice",rice (Oryza sativa),0
same,"Plant response rating, Sedge, Umbrella",[14],0
CCOC(=O)c1nc(C2CC2)nc(NCCOC)c1Br [Compound 39],Surinam Grass plant response rating,[1]; [15],0
same,"Plant response rating, Surinam Grass",[1]; [16],30
same,"Plant response rating, Surinam Grass",[1]; [17],0
same,Surinam Grass plant response rating,[1]; [18],0
same,Barnyardgrass plant response rating,[2]; [15],0
same,"Plant response rating, Barnyardgrass",[2]; [16],70
same,"Plant response rating, Barnyardgrass",[2]; [17],0
same,Barnyardgrass plant response rating,[2]; [18],20
same,Cocklebur plant response rating,[3]; [15],30
same,"Plant response rating, Cocklebur",[3]; [16],50
same,"Plant response rating, Cocklebur",[3]; [17],10
same,Cocklebur plant response rating,[3]; [18],30
same,Corn plant response rating,corn (Zea mays); [15],0
same,"Plant response rating, Corn",corn (Zea mays); [16],50
same,"Plant response rating, Corn",corn (Zea mays); [17],30
same,Corn plant response rating,corn (Zea mays); [18],50
same,Crabgrass plant response rating,[4]; [15],0
same,"Plant response rating, Crabgrass",[4]; [16],40
same,"Plant response rating, Crabgrass",[4]; [17],0
same,Crabgrass plant response rating,[4]; [18],50
same,"Foxtail, Giant plant response rating",[5]; [15],0
same,"Plant response rating, Foxtail, Giant",[5]; [16],30
same,"Plant response rating, Foxtail, Giant",[5]; [17],0
same,"Foxtail, Giant plant response rating",[5]; [18],20
same,Lambsquarters plant response rating,[6]; [15],70
same,"Plant response rating, Lambsquarters",[6]; [16],90
same,"Plant response rating, Lambsquarters",[6]; [17],50
same,Lambsquarters plant response rating,[6]; [18],100
same,Morningglory plant response rating,[7]; [15],80
same,"Plant response rating, Morningglory",[7]; [16],100
same,"Plant response rating, Morningglory",[7]; [17],30
same,Morningglory plant response rating,[7]; [18],70
same,Pigweed plant response rating,[8]; [15],50
same,"Plant response rating, Pigweed",[8]; [16],70
same,"Plant response rating, Pigweed",[8]; [17],70
same,Pigweed plant response rating,[8]; [18],100
same,Velvetleaf plant response rating,[9]; [15],40
same,"Plant response rating, Velvetleaf",[9]; [16],70
same,"Plant response rating, Velvetleaf",[9]; [17],0
same,Velvetleaf plant response rating,[9]; [18],30
same,Wheat plant response rating,[10]; [15],0
same,"Plant response rating, Wheat",[10]; [16],0
same,"Plant response rating, Wheat",[10]; [17],0
same,"Plant response rating, Wheat",[10]; [18],10
same,Blackgrass plant response rating,[11],0
same,"Plant response rating, Blackgrass",[11],0
same,"Oat, Wild plant response rating",wild oat (Avena fatua),0
same,"Plant response rating, Oat, Wild",wild oat (Avena fatua),0
same,"Plant response rating, Barnyardgrass",[12],0
same,"Plant response rating, Ducksalad",[13],0
same,"Plant response rating, Rice",rice (Oryza sativa),0
same,"Plant response rating, Sedge, Umbrella",[14],0
